Measured values published in PubChem BioAssay AID298 (DTP/NCI, 2004).
Values joined by “and” are separate entries in the source; they are usually repeats but may differ in a detail not shown here. Equal values may be shown once. Results filed as inconclusive are left out.

Tested on: MX-1 breast xenograft, intrarenal, nude mice, tumor weight
Assay: NCI In Vivo Anticancer Drug Screen. Data for tumor model Human Mammary Carcinoma MX-1 Xenograft (intrarenal inoculation) in NU/NU BALB/C (nude) mice
Conditions: endpoint: mean tumor weight change, higher = larger tumour
Protocol: The antitumor activity of compounds was measured in mice bearing transplantable tumors. Survival or tumor size were measured and the results are expressed as the measurement made in the treated group (T) divided by the measurement made in the vehicle treated control group (C). The tumor model used in this assay is Human Mammary Carcinoma MX-1 Xenograft (intrarenal inoculation) in NU/NU BALB/C (nude) mice

[1] = dose: 150.0 mg/kg/injection, schedule: Q04DX003 (ip), vehicle: saline with Tween-80
[2] = dose: 50.0 mg/kg/injection, schedule: Q04DX003 (ip), vehicle: saline
[3] = dose: 300.0 mg/kg/injection, schedule: Q04DX003 (sc), vehicle: saline with Tween-80
[4] = dose: 1200.0 mg/kg/injection, schedule: Q04DX003 (sc), vehicle: saline with Tween-80
[5] = dose: 200.0 mg/kg/injection, schedule: Q04DX003 (sc), vehicle: saline with Tween-80
[6] = dose: 400.0 mg/kg/injection, schedule: Q04DX003 (sc), vehicle: saline with Tween-80
[7] = dose: 37.5 mg/kg/injection, schedule: Q04DX003 (ip), vehicle: water

## O=C1C2CC(Cl)C(SSC3CC4C(=O)N(SC(Cl)(Cl)C(Cl)Cl)C(=O)C4CC3Cl)CC2C(=O)N1SC(Cl)(Cl)C(Cl)Cl (stereo not drawn)
dose: 75.0 mg/kg/injection, schedule: Q04DX003 (ip), vehicle: saline with Tween-80
  T/C: 88 % of control
[1]
  T/C: 45 % of control

## COc1cc2c(c(OC)c1OC)-c1ccc(OC)c(=O)cc1[C@@H](NC(=O)CCl)CC2
dose: 0.5 mg/kg/injection, schedule: Q04DX003 (sc), vehicle: saline with Tween-80
  T/C: 87 % of control
dose: 1.0 mg/kg/injection, schedule: Q04DX003 (sc), vehicle: saline with Tween-80
  T/C: 43 % of control
dose: 2.0 mg/kg/injection, schedule: Q04DX003 (sc), vehicle: saline with Tween-80
  T/C: 8 % of control
dose: 4.0 mg/kg/injection, schedule: Q04DX003 (sc), vehicle: saline with Tween-80
  T/C: 1 % of control

## O=P1(NCCCl)OCCCN1CCCl (stereo not drawn)
dose: 150.0 mg/kg/injection, schedule: Q04DX003 (sc), vehicle: saline
  T/C: -32 % of control

## O=c1[nH]cc(F)c(=O)[nH]1
[2]
  T/C: 43 % of control

## O=C(Nc1ccccc1CCl)Nc1ccccc1CCl
dose: 1200.0 mg/kg/injection, schedule: Q04DX003 (ip), vehicle: saline with Tween-80
  T/C: 9 % of control and 12 % of control and 20 % of control

## COc1ccc(N=C(C)C2C(=O)c3ccccc3C2=O)cc1
dose: 150.0 mg/kg/injection, schedule: Q04DX003 (ip), vehicle: DMSO
  T/C: 93 % of control
dose: 300.0 mg/kg/injection, schedule: Q04DX003 (ip), vehicle: DMSO
  T/C: 98 % of control
dose: 600.0 mg/kg/injection, schedule: Q04DX003 (ip), vehicle: DMSO
  T/C: 110 % of control
dose: 1200.0 mg/kg/injection, schedule: Q04DX003 (ip), vehicle: DMSO
  T/C: 105 % of control

## CC1=CCCC2C1(C)CCC(C)C2(C)Cc1cc(O)ccc1O (stereo not drawn)
dose: 12.5 mg/kg/injection, schedule: Q04DX003 (ip), vehicle: Klucel (hydroxypropylcellulose) (HPC)
  T/C: 84 % of control
dose: 25.0 mg/kg/injection, schedule: Q04DX003 (ip), vehicle: Klucel (hydroxypropylcellulose) (HPC)
  T/C: 76 % of control
dose: 50.0 mg/kg/injection, schedule: Q04DX003 (ip), vehicle: Klucel (hydroxypropylcellulose) (HPC)
  T/C: 86 % of control
dose: 100.0 mg/kg/injection, schedule: Q04DX003 (ip), vehicle: Klucel (hydroxypropylcellulose) (HPC)
  T/C: 66 % of control

## CCCNC1=C(C)C(=O)C2=C(C1=O)[C@H](COC(N)=O)[C@]1(OC)[C@@H]3N[C@@H]3CN21
dose: 3.0 mg/kg/injection, schedule: Q04DX003 (sc), vehicle: saline
  T/C: 13 % of control
dose: 6.0 mg/kg/injection, schedule: Q04DX003 (sc), vehicle: saline
  T/C: -77 % of control
dose: 12.0 mg/kg/injection, schedule: Q04DX003 (sc), vehicle: saline
  T/C: -100 % of control

## O=C/C(Cl)=C(/Cl)C(=O)O
dose: 10.0 mg/kg/injection, schedule: Q01DX010 (sc), vehicle: saline with Tween-80
  T/C: 87 % of control
dose: 20.0 mg/kg/injection, schedule: Q01DX010 (sc), vehicle: saline with Tween-80
  T/C: 36 % of control
dose: 40.0 mg/kg/injection, schedule: Q01DX010 (sc), vehicle: saline with Tween-80
  T/C: 41 % of control

## O=C(CCCCCCC(=O)ON1C(=O)CCC1=O)ON1C(=O)CCC1=O
[3]
  T/C: 110 % of control
dose: 600.0 mg/kg/injection, schedule: Q04DX003 (sc), vehicle: saline with Tween-80
  T/C: 96 % of control
[4]
  T/C: 81 % of control
dose: 2400.0 mg/kg/injection, schedule: Q04DX003 (sc), vehicle: saline with Tween-80
  T/C: 85 % of control

## COc1cc(C(C)(C)C)cc(OC)c1C(O)(c1c(OC)cc(C(C)(C)C)cc1OC)c1c(OC)cc(C(C)(C)C)cc1OC
[5]
  T/C: 93 % of control
[6]
  T/C: 88 % of control
dose: 800.0 mg/kg/injection, schedule: Q04DX003 (sc), vehicle: saline with Tween-80
  T/C: 96 % of control
dose: 1600.0 mg/kg/injection, schedule: Q04DX003 (sc), vehicle: saline with Tween-80
  T/C: 100 % of control

## NC(CSSCC(N)C(=O)O)C(=O)O (stereo not drawn)
dose: 300.0 mg/kg/injection, schedule: Q04DX003 (ip), vehicle: saline
  T/C: 88 % of control
dose: 600.0 mg/kg/injection, schedule: Q04DX003 (ip), vehicle: saline
  T/C: 92 % of control
dose: 1200.0 mg/kg/injection, schedule: Q04DX003 (ip), vehicle: saline
  T/C: 104 % of control
dose: 2400.0 mg/kg/injection, schedule: Q04DX003 (ip), vehicle: saline
  T/C: 80 % of control

## Cc1cc2c(=O)cc(-c3ccccc3)oc2c(C(=O)O)c1C
dose: 125.0 mg/kg/injection, schedule: Q04DX003 (ip), vehicle: saline with Tween-80
  T/C: 109 % of control
dose: 250.0 mg/kg/injection, schedule: Q04DX003 (ip), vehicle: saline with Tween-80
  T/C: 99 % of control

## O=C1C2C3C=CC(C2C(=O)N1CO)C1C2C(=O)N(CO)C(=O)C2C31 (stereo not drawn)
[7]
  T/C: 110 % of control
dose: 75.0 mg/kg/injection, schedule: Q04DX003 (ip), vehicle: water
  T/C: 71 % of control

## CC(=O)Nc1cscc1NC(C)=O
dose: 150.0 mg/kg/injection, schedule: Q04DX003 (sc), vehicle: saline with Tween-80
  T/C: 198 % of control
[3]
  T/C: 59 % of control
[4]
  T/C: 106 % of control

## O=c1c(O)c(-c2cc(O)c(O)c(O)c2)oc2cc(O)cc(O)c12
dose: 50.0 mg/kg/injection, schedule: Q04DX003 (sc), vehicle: saline with Tween-80
  T/C: 95 % of control
dose: 100.0 mg/kg/injection, schedule: Q04DX003 (sc), vehicle: saline with Tween-80
  T/C: 111 % of control
[5]
  T/C: 115 % of control
[6]
  T/C: 179 % of control

## O=C(CCCN1CCC(O)(c2cccc(C(F)(F)F)c2)CC1)c1ccc(F)cc1
dose: 25.0 mg/kg/injection, schedule: Q01DX010 (sc), vehicle: Klucel (hydroxypropylcellulose) (HPC)
  T/C: 33 % of control

## CCOc1cc2c(cc1C(C)c1ccc(OC)cc1)OCO2 (stereo not drawn)
dose: 300.0 mg/kg/injection, schedule: Q04DX003 (sc), vehicle: distilled water + alcohol
  T/C: 36 % of control
dose: 600.0 mg/kg/injection, schedule: Q04DX003 (sc), vehicle: distilled water + alcohol
  T/C: 90 % of control
dose: 1200.0 mg/kg/injection, schedule: Q04DX003 (sc), vehicle: distilled water + alcohol
  T/C: 76 % of control
dose: 2400.0 mg/kg/injection, schedule: Q04DX003 (sc), vehicle: distilled water + alcohol
  T/C: 111 % of control

## Nc1ccn([C@@H]2C=C(CO)[C@@H](O)[C@H]2O)c(=O)n1
dose: 0.5 mg/kg/injection, schedule: Q01DX009 (ip), vehicle: saline
  T/C: 26 % of control
dose: 2.0 mg/kg/injection, schedule: Q01DX009 (ip), vehicle: saline
  T/C: 3 % of control

## O=NNc1ccc(Cl)cn1
dose: 4.7 mg/kg/injection, schedule: Q04DX003 (ip), vehicle: water
  T/C: 60 % of control
dose: 9.4 mg/kg/injection, schedule: Q04DX003 (ip), vehicle: water
  T/C: 59 % of control
dose: 18.7 mg/kg/injection, schedule: Q04DX003 (ip), vehicle: water
  T/C: 29 % of control
[7]
  T/C: 4 % of control

## O=C(Nc1cc(Cl)ccc1C(=O)O)c1cccc(C[n+]2ccccc2)c1
[1]
  T/C: 109 % of control
dose: 300.0 mg/kg/injection, schedule: Q04DX003 (ip), vehicle: saline with Tween-80
  T/C: 109 % of control
dose: 600.0 mg/kg/injection, schedule: Q04DX003 (ip), vehicle: saline with Tween-80
  T/C: 82 % of control

## O=C(Nc1cccnc1)c1ccc([N+](=O)[O-])s1
[2]
  T/C: 92 % of control
dose: 100.0 mg/kg/injection, schedule: Q04DX003 (ip), vehicle: saline
  T/C: 81 % of control and 90 % of control
dose: 200.0 mg/kg/injection, schedule: Q04DX003 (ip), vehicle: saline
  T/C: 92 % of control and 103 % of control
dose: 400.0 mg/kg/injection, schedule: Q04DX003 (ip), vehicle: saline
  T/C: 80 % of control
dose: 800.0 mg/kg/injection, schedule: Q04DX003 (ip), vehicle: saline
  T/C: 105 % of control

## COc1ccc2c(c1)n([O-])c1ccccc1[n+]2=O
dose: 50.0 mg/kg/injection, schedule: Q04DX003 (ip), vehicle: saline with Tween-80
  T/C: 40 % of control
dose: 100.0 mg/kg/injection, schedule: Q04DX003 (ip), vehicle: saline with Tween-80
  T/C: 48 % of control
dose: 200.0 mg/kg/injection, schedule: Q04DX003 (ip), vehicle: saline with Tween-80
  T/C: 36 % of control

## CCC(=O)N(C)[C@@H](C)C(=O)O[C@H]1CC(=O)N(C)c2cc(cc(OC)c2Cl)C/C(C)=C/C=C[C@@H](OC)[C@@]2(O)C[C@H](OC(=O)N2)[C@@H](C)[C@@H]2O[C@@]12C
dose: 0.12 mg/kg/injection, schedule: Q04DX003 (sc), vehicle: saline + alcohol
  T/C: 100 % of control
dose: 0.25 mg/kg/injection, schedule: Q04DX003 (sc), vehicle: saline + alcohol
  T/C: 48 % of control
dose: 0.5 mg/kg/injection, schedule: Q04DX003 (sc), vehicle: saline + alcohol
  T/C: 5 % of control
dose: 7.5 micrograms/kg/injection, schedule: Q04DX004 (ip), vehicle: saline + alcohol
  T/C: 115 % of control
dose: 15.0 micrograms/kg/injection, schedule: Q04DX004 (ip), vehicle: saline + alcohol
  T/C: 67 % of control
